Experimental data from PMC4363092 (Journal of medicinal chemistry, 2014).
Where “and” joins values, the source holds several entries; their conditions need not be identical. Equal values may be shown once. Entries after “also recorded” stand apart in the source; their conditions may differ. Read-outs that look alike come from different tables or passages of the source.

Experiments:
P2Y11 receptor [1] = conditions: cited from earlier work; for potency relative to ATP at the P2Y11 receptor: higher potency than ATP
NPP1 = conditions: cited from earlier work; for Ki: read-out: Ki, NPP1
human NTPDase1,2,3,8 = assay: Inhibition of NTPDase activity, text statements pooled over NTPDase1,2,3,8; format: biochemical; conditions: analogue 100 μM, pooled over four NTPDases
P2Y11 receptor [2] = target: T1, P2Y11 receptor (Homo sapiens, UniProt Q96G91); assay: [Ca2+]i elevation in 1321N1 astrocytoma cells expressing GFP-P2Y11 receptor; format: cell-based; conditions: for potency relative to ATP at the P2Y11 receptor: more potent than ATP
T1 sequence (Q96G91 1-374): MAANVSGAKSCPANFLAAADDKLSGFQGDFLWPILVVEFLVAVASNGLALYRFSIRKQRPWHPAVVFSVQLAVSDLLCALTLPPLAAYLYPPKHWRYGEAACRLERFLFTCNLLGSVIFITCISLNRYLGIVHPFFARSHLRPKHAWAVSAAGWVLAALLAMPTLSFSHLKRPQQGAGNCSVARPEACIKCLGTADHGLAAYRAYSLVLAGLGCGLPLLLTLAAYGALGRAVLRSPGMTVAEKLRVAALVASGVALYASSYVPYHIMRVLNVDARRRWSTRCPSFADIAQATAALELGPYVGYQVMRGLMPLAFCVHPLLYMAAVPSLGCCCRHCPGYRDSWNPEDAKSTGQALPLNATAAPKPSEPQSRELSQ

human NTPDase1 = target: T2, human NTPDase1 (Homo sapiens, UniProt P49961); conditions: analogue 100 μM as substrate; activity with 100 μM ATP set as 100%
T2 sequence (P49961 1-510): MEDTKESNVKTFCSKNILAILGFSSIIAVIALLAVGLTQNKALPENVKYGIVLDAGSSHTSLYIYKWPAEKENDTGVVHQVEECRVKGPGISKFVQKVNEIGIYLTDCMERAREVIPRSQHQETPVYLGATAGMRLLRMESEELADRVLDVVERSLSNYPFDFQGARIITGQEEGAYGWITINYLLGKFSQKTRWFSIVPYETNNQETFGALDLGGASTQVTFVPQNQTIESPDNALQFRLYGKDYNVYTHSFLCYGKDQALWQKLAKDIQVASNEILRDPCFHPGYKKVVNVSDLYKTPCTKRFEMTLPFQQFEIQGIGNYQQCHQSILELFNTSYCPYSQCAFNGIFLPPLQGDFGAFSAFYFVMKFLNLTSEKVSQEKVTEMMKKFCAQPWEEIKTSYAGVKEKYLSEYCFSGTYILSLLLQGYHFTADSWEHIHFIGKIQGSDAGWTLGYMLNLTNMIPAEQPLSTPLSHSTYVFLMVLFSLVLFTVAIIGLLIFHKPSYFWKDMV

human NTPDase2 = target: T3, human NTPDase2 (Homo sapiens, UniProt Q9Y5L3); conditions: analogue 100 μM as substrate; activity with 100 μM ATP set as 100%
T3 sequence (Q9Y5L3 1-495): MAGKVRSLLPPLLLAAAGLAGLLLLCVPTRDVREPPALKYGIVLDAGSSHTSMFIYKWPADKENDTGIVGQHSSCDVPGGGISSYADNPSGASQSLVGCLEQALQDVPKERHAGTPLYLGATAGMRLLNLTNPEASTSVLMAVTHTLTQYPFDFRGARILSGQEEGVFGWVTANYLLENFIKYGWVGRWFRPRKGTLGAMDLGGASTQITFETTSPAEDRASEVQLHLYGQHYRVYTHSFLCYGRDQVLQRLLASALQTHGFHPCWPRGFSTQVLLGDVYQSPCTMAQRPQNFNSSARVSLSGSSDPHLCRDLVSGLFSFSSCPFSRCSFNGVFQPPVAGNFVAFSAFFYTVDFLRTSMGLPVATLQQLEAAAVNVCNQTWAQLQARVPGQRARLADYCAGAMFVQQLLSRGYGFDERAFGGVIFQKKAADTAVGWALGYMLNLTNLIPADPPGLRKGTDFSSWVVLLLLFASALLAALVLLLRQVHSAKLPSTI

human NTPDase3 = target: T4, human NTPDase3 (Homo sapiens, UniProt O75355); conditions: analogue 100 μM as substrate; activity with 100 μM ATP set as 100%
T4 sequence (O75355 1-529): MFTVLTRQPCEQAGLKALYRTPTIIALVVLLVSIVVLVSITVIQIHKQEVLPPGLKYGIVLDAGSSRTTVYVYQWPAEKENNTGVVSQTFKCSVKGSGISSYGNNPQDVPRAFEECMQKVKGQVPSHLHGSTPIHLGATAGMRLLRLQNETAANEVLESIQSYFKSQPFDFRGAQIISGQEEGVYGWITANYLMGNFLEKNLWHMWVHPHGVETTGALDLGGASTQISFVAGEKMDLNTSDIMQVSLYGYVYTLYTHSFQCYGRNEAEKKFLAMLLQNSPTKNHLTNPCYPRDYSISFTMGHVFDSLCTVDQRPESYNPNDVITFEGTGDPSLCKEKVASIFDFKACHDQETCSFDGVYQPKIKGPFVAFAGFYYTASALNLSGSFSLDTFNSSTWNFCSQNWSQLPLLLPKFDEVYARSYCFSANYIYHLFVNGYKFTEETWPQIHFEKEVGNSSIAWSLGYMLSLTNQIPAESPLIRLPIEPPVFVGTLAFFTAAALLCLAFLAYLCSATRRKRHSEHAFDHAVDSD

human NTPDase8 = target: T5, human NTPDase8 (Homo sapiens, UniProt Q5MY95); conditions: analogue 100 μM as substrate; activity with 100 μM ATP set as 100%
T5 sequence (Q5MY95 1-495): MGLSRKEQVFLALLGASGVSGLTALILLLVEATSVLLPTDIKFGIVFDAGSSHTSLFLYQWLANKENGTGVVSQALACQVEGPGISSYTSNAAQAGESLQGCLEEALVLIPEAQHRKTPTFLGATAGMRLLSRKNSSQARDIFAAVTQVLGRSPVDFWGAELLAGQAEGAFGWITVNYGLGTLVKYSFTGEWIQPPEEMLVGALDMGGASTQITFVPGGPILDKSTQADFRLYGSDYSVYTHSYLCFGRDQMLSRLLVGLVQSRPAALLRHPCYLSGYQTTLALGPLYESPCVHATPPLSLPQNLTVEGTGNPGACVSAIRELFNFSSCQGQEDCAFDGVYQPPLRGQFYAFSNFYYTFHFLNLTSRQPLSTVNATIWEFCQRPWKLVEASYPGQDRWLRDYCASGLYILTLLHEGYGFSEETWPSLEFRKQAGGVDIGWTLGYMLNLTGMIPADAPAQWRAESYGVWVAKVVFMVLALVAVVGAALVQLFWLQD

human NPP1 = target: T6, human NPP1 (Homo sapiens, UniProt P22413); assay: Inhibition of NPP1, pNP-TMP as substrate; format: biochemical; conditions: Dixon and Cornish–Bowden methods
T6 sequence (P22413 1-925): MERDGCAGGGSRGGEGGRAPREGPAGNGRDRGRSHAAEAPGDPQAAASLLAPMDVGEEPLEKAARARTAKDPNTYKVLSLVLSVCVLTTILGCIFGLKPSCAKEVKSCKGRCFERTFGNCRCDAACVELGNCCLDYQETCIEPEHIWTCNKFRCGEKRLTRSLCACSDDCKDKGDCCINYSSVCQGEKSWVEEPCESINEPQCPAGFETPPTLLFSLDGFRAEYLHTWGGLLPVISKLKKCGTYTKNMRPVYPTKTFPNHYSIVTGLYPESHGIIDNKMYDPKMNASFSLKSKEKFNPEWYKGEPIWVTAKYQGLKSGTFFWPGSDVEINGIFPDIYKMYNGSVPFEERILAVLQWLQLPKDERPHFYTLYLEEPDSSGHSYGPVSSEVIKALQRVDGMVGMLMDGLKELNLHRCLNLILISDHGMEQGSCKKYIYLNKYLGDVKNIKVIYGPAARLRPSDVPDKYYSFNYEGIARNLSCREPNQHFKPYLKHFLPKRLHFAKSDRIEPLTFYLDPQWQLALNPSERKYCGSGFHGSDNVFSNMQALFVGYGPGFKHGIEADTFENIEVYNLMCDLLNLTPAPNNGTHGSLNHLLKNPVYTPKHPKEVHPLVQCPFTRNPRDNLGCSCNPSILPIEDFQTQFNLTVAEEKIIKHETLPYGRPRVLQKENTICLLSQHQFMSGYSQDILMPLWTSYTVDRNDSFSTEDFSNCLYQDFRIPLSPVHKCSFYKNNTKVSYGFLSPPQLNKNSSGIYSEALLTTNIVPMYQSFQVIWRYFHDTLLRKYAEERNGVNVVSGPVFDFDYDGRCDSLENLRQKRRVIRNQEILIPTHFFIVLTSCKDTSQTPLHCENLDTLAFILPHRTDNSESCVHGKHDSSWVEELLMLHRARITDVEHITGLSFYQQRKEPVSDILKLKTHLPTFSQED

Structure (SMILES)	inhibition of ATP hydrolysis by NTPDase1,2,3,8 (human NTPDase1,2,3,8)	relative activity (%) ± SD of ATP hydrolysis, NTPDase1 (human NTPDase1) [%]	relative activity (%) ± SD of ATP hydrolysis, NTPDase2 (human NTPDase2) [%]	relative activity (%) ± SD of ATP hydrolysis, NTPDase3 (human NTPDase3) [%]	relative activity (%) ± SD of ATP hydrolysis, NTPDase8 (human NTPDase8) [%]	also measured
CCCSc1nc(N)c2ncn([C@@H]3O[C@H](COP(O)(=S)OP(=O)(O)C(Cl)(Cl)P(=O)(O)O)[C@@H](O)[C@H]3O)c2n1 (single isomer, unassigned; isomer a) [2-(propylthio)adenosine 5′-α-thio-β,γ-(dichloromethylene)-triphosphate, isomer A, 2-(propylthio)adenosine 5′-α-thio-β,γ-(dichloromethylene)-triphosphate]	–	–	–	–	–	potency relative to ATP at the P2Y11 receptor (P2Y11 receptor [1]): ~ 3 fold
BP(=O)(OC[C@H]1O[C@@H](n2cnc3c(N)ncnc32)[C@H](O)[C@@H]1O)OP(=O)(O)CP(=O)(O)O (single isomer, unassigned; isomer a) [adenosine 5′-α-borano-β,γ-methylenetriphosphate (isomer A), adenosine 5′-α-borano-β,γ-methylenetriphosphate]	–	–	–	–	–	Ki (NPP1; ref 22 (b65 prints ref 44)): 0.5 µM
CCCSc1nc(N)c2ncn([C@@H]3O[C@H](COP(O)(=S)OP(=O)(O)C(Cl)(Cl)P(=O)(O)O)[C@@H](O)[C@H]3O)c2n1 (single isomer, unassigned; isomer b) [2-(propylthio)adenosine 5′-α-thio-β,γ-(dichloromethylene)-triphosphate, isomer B, 2-(propylthio)adenosine 5′-α-thio-β,γ-(dichloromethylene)-triphosphate]	–	–	–	–	–	potency relative to ATP at the P2Y11 receptor (P2Y11 receptor [1]): ~ 4 fold
Nc1ncnc2c1ncn2[C@@H]1O[C@H](CO[P@](O)(=S)OP(=O)(O)CP(=O)(O)O)[C@@H](O)[C@H]1O [1a]	did not interfere	4.4 ± 0.2	4.7 ± 1.7	4.2 ± 0.2	4.4 ± 0.2	EC50 ± SEM (μM), [Ca^2+]i elevation, P2Y11 (P2Y11 receptor [2]; 1321N1 cells, nr = no response up to 10 μM): not agonists; also recorded: inactive; also recorded: not active, nr ^c
Nc1ncnc2c1ncn2[C@@H]1O[C@H](CO[P@@](O)(=S)OP(=O)(O)CP(=O)(O)O)[C@@H](O)[C@H]1O [1b]	did not interfere	5.4 ± 0.2	5.5 ± 0.3	4.8 ± 0.2	5.3 ± 0.2	type of inhibition (human NPP1): mixed-type inhibition, predominantly competitive; potency relative to ATP at the P2Y11 receptor (P2Y11 receptor [2]): 7 fold and ~ 7 fold
Nc1ncnc2c1ncn2[C@@H]1O[C@H](CO[P@@](O)(=S)OP(=O)(O)C(Cl)(Cl)P(=O)(O)O)[C@@H](O)[C@H]1O [2b]	did not interfere	5.4 ± 0.2	5.5 ± 0.2	5.4 ± 0.2	5.3 ± 0.2	type of inhibition (human NPP1): mixed-type inhibition, predominantly competitive; EC50 (P2Y11 receptor [2]): 3 ± 1.46 µM; potency relative to ATP at the P2Y11 receptor (P2Y11 receptor [2]): 2 fold and ~ 2 fold
Nc1ncnc2c1ncn2[C@@H]1O[C@H](CO[P@](=O)(O)O[P@](=O)(O)O[P@@](=O)(O)S)[C@@H](O)[C@H]1O [ATP-γ-S]	–	–	–	–	–	pEC50, P2Y11 receptor (P2Y11 receptor [1]): 5.52
Nc1ncnc2c1ncn2[C@H]1C[C@H](O)[C@@H](COP(=O)(O)CP(=O)(O)OP(=O)(O)OP(=O)(O)CP(=O)(O)OC[C@H]2O[C@@H](n3cnc4c(N)ncnc43)C[C@@H]2O)O1 [bis(2′-deoxyadenosine) α,β:δ,ε-dimethylenepentaphosphonate]	–	–	–	–	–	IC50 (NPP1; read-out: IC50, NPP1): 13 µM; Ki (NPP1): 9 µM
Nc1ncnc2c1nc(S)n2[C@@H]1O[C@H](COP(=O)(O)OP(=O)(O)OP(=O)(O)O)[C@@H](O)[C@H]1O [compound 4]	–	43 ± 2	73 ± 2	51 ± 3	73 ± 1	–
